How the values were obtained:
Assay in all cases: drug sensitivity score (DSS) from 5-point dose-response viability curve (DSS (area-under-curve based score)); higher = more sensitive (stronger growth inhibition or killing); extreme values may be limits of the assay
Settings in all cases: exposure time: 72 h; concentration range: 5 concentrations over 10,000-fold range
CAOV3 = system: CAOV3
Outline: (§1)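 For the drug sensitivity score, obtained per cell line and drug in Breeze software, larger values mean greater sensitivity. No response corresponds to a score of zero. Ovarian cancer and normal ovarian cells were seeded at 1,500 per well into 384-well plates already holding acoustically dispensed drugs (Echo 550, DMSO or water, five concentrations over a 10,000-fold range) and incubated 3 days at 37°C, 5% CO2. CellTiter-Glo luminescence on a PHERAstar FS gave the viability readout.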

COV362 = system: COV362
Outline: as §1

Ovsaho = system: Ovsaho
Outline: as §1

JHOS2 = system: JHOS2
Outline: as §1

Kuramochi = system: Kuramochi
Outline: as §1

HOSE2C = system: HOSE2C
Outline: as §1

HOSE1C = system: HOSE1C
Outline: as §1

OV90 = system: OV90
Outline: as §1

COV318 = system: COV318
Outline: as §1

OVCAR4 = system: OVCAR4
Outline: as §1

OVCAR8 = system: OVCAR8
Outline: as §1

OVCAR5 = system: OVCAR5
Outline: as §1

Structure (SMILES) | drug sensitivity score (CAOV3) | drug sensitivity score (COV362) | drug sensitivity score (Ovsaho) | drug sensitivity score (JHOS2) | drug sensitivity score (Kuramochi) | drug sensitivity score (HOSE2C) | drug sensitivity score (HOSE1C) | drug sensitivity score (OV90) | drug sensitivity score (COV318) | drug sensitivity score (OVCAR4) | drug sensitivity score (OVCAR8) | drug sensitivity score (OVCAR5)
CC(C)Nc1cc(-c2c[nH]c(C(=O)N[C@H](CO)c3cccc(Cl)c3)c2)c(Cl)cn1 [Ulixertinib] | 8 | 1.9 | 11.5 | 3.8 | 7.7 | 2.2 | 0 | 14 | 0.9 | 1.1 | 3.6 | 7.8
NC(=O)c1cccc(-c2cccc(OC(=O)NC3CCCCC3)c2)c1 [URB597] | 0 | 0 | 0 | 0 | 0 | 0 | 0 | 0 | 0 | 0 | 0 | 0
CO[C@@H]1[C@H](N(C)C(=O)c2ccccc2)C[C@H]2O[C@]1(C)n1c3ccccc3c3c4c(c5c6ccccc6n2c5c31)C(=O)NC4 [Midostaurin] | 17.7 | 5 | 14.1 | 9.7 | 7.2 | 15.1 | 11.7 | 12.7 | 8.1 | 8.5 | 7 | 5.3
CCc1cncnc1N1CCN(Cc2nc3ccc(C(F)(F)F)cc3[nH]2)CC1 | 0.9 | 0 | 1.2 | 0.8 | 1.1 | 0 | 0 | 2.9 | 1.1 | 2.3 | 3.1 | 2.8
CNCc1ccc(-c2[nH]c3cc(F)cc4c3c2CCNC4=O)cc1 [Rucaparib] | 0 | 0 | 0.4 | 0.7 | 0.3 | 0 | 0 | 1.7 | 0.5 | 0 | 1.8 | 1.2
COCCNCc1ccc(-c2cc3nccc(Oc4ccc(NC(=S)NC(=O)Cc5ccc(F)cc5)cc4F)c3s2)nc1 [Glesatinib] | 0 | 1.6 | 0.2 | 0 | 0 | 1.9 | 2.9 | 0 | 0.1 | 0 | 0 | 1.2
CNC(=O)c1ccc(N2C(=S)N(c3cnc(C#N)c(C(F)(F)F)c3)C(=O)C23CCC3)cc1F [Apalutamide] | 0 | 0 | 0 | 0 | 0 | 0 | 0 | 0 | 0 | 0 | 0 | 0
CO[C@H]1C[C@@H]2CC[C@@H](C)[C@@](O)(O2)C(=O)C(=O)N2CCCC[C@H]2C(=O)O[C@H]([C@H](C)C[C@@H]2CC[C@@H](O)[C@H](OC)C2)CC(=O)[C@H](C)/C=C(\C)[C@@H](O)[C@@H](OC)C(=O)[C@H](C)C[C@H](C)/C=C/C=C/C=C/1C [Sirolimus] | 3.9 | 0 | 4.4 | 3.6 | 3.8 | 0 | 4.8 | 7.7 | 1.2 | 1.9 | 4 | 4.3
CCNC(=O)c1noc(-c2cc(C(C)C)c(O)cc2O)c1-c1ccc(CN2CCOCC2)cc1 [Luminespib] | 16.8 | 13.8 | 8.7 | 18.8 | 14.4 | 23 | 23.1 | 17.2 | 11.6 | 9.8 | 18.8 | 15.2
O=c1[nH]c(=O)n([C@H]2C[C@H](O)[C@@H](CO)O2)cc1C(F)(F)F [Trifluridine] | 3.3 | 0 | 2 | 0.6 | 0 | 0 | 0 | 2.1 | 0 | 1.1 | 2.7 | 2.9
Cc1ncc(Cl)cc1NCc1ccc(C(=O)N[C@@H](CC2CCCC2)C(=O)NC2CC2)s1 | 0 | 0 | 0 | 0 | 0.4 | 0 | 0 | 0.1 | 0 | 0 | 0 | 0
CCNC(=O)CCC/C=C\C[C@@H]1[C@@H](/C=C/[C@@H](O)CCc2ccccc2)[C@H](O)C[C@@H]1O [Bimatoprost] | 0 | 0 | 0 | 0 | 0 | 0 | 0 | 0 | 0 | 0 | 0 | 0
CC[C@@]1(O)C(=O)OCc2c1cc1n(c2=O)Cc2cc3c(CN(C)C)c(O)ccc3nc2-1 [Topotecan] | 18.2 | 5.7 | 8.5 | 11 | 5.4 | 24.8 | 26.6 | 15.4 | 6.3 | 7.2 | 13.5 | 10.1
CC(=O)OC[C@H]1O[C@@H]([S-])[C@H](OC(C)=O)[C@@H](OC(C)=O)[C@@H]1OC(C)=O.CCP(CC)CC.[Au+] [Auranofin] | 9.3 | 0 | 7.8 | 4.1 | 2.9 | 13.3 | 13.3 | 3.5 | 5 | 1.7 | 3.4 | 1.3
CC(O)(CS(=O)(=O)c1ccc(F)cc1)C(=O)Nc1ccc(C#N)c(C(F)(F)F)c1 (stereo not given) [Bicalutamide] | 0 | 0 | 0 | 0 | 0.2 | 0 | 8.4 | 0 | 0 | 0.5 | 0.3 | 0.7
CO[C@@]12[C@H](COC(N)=O)C3=C(C(=O)C(C)=C(N)C3=O)N1C[C@@H]1N[C@@H]12 [Mitomycin C] | 4.7 | 0 | 0 | 0 | 0 | 0 | 0 | 0.9 | 0 | 0 | 0 | 0
FC(F)(F)c1ccc(/C=C/c2nc(COc3ccc(CCCCn4ccnn4)cc3)co2)cc1 [Mubritinib] | 5.4 | 0 | 0.5 | 0.3 | 0.6 | 0 | 0 | 5.9 | 0.8 | 2.2 | 16.7 | 0.9
CN(C)Cc1ccc(S(=O)(=O)n2ccc(/C=C/C(=O)NO)c2)cc1 [Resminostat] | 8.2 | 2.9 | 3.6 | 5.3 | 5.8 | 12 | 19.3 | 9.7 | 4.8 | 3.2 | 11.8 | 12.3
COc1cc([C@@H]2c3cc4c(cc3[C@@H](O[C@@H]3O[C@@H]5CO[C@@H](C)O[C@H]5[C@H](O)[C@H]3O)[C@H]3COC(=O)[C@H]23)OCO4)cc(OC)c1O [Etoposide] | 9.2 | 0.1 | 7 | 4.5 | 1.8 | 10.1 | 6.5 | 6.1 | 1.7 | 0 | 8.6 | 4.1
N#CC[C@H](C1CCCC1)n1cc(-c2ncnc3[nH]ccc23)cn1 [Ruxolitinib] | 0 | 0 | 0 | 1 | 0 | 0 | 0 | 0.1 | 0 | 0 | 0.1 | 0
C=CC(=O)Nc1cc(Nc2nccc(-c3cn(C)c4ccccc34)n2)c(OC)cc1N(C)CCN(C)C [Osimertinib] | 5.4 | 2.2 | 5.5 | 1.6 | 3.9 | 0.9 | 4.7 | 1.4 | 1.3 | 1.7 | 3.7 | 5.3
CCN(CC)CCNC(=O)c1c(C)[nH]c(/C=C2\C(=O)Nc3ccc(F)cc32)c1C [Sunitinib] | 0 | 0 | 0 | 0.1 | 0 | 0 | 0 | 0 | 0 | 0 | 0 | 0
Cc1ncc(-c2ccnc(Nc3ccc(S(C)(=O)=O)cc3)n2)n1C(C)C [AZD-5438] | 4.4 | 2.8 | 8.1 | 7.9 | 6.8 | 2 | 7 | 4.4 | 2.9 | 2.9 | 8.4 | 9.2
COc1ccc(-c2ccc3ncc4c(c3c2)n(-c2ccc(N3CCNCC3)c(C(F)(F)F)c2)c(=O)n4C)cn1 [NVP-BGT226] | 12.7 | 4.6 | 15.6 | 11.6 | 10.2 | 15.7 | 22.2 | 17.2 | 9.3 | 13.6 | 14.9 | 14.6
C[C@@H]1C=C2C(=O)O[C@@H]3CC[C@H](C1)[C@]23O [Galiellalactone] | 6.1 | 2.9 | 4.6 | 5.6 | 0 | 7.3 | 8.1 | 7.1 | 3.8 | 6.5 | 3.6 | 7.6
CCCCc1nc2cc(/C=C/C(=O)NO)ccc2n1CCN(CC)CC [Pracinostat] | 13.2 | 5.1 | 10.5 | 13 | 13.5 | 18.5 | 22.2 | 14.6 | 10 | 10.4 | 19.5 | 20.9
Cc1noc2c1-c1ccccc1C(c1ccc(Cl)cc1)=N[C@H]2CC(N)=O [CPI-0610] | 8.5 | 5.9 | 12.6 | 5 | 13 | 9.9 | 9.3 | 7.6 | 4.1 | 5 | 6.4 | 9.3
CC(C)(C)Cn1c(N)nc2ccc(-c3[nH]c(C(C)(C)C)nc3-c3ccc(F)cc3)nc21 [Ralimetinib] | 2.9 | 1.4 | 1.8 | 1.8 | 6.6 | 0.5 | 1.1 | 4.1 | 2.6 | 1.1 | 3.1 | 4.3
Cc1nc(=O)c2cc(CN(C)c3ccc(C(=O)N[C@@H](CCC(=O)O)C(=O)O)s3)ccc2[nH]1 [Raltitrexed] | 10.7 | 6 | 5.7 | 4.2 | 9.1 | 20.3 | 21.8 | 6.1 | 3 | 6.4 | 18.4 | 6.3
COc1cc2c(cc1OC(C)C)[C@H](c1ccc(Cl)cc1)N(c1ccc(N(C)C[C@H]3CC[C@H](N4CCN(C)C(=O)C4)CC3)cc1)C(=O)C2 [NVP-CGM097] | 3.3 | 4.6 | 5.8 | 6.4 | 5.5 | 16.5 | 11.4 | 5.4 | 5.9 | 5 | 5.7 | 7.2
